For 2 compounds, IC50 results are on record in ChEMBL document CHEMBL1141955, “Geometric diversity through permutation of backbone configuration in cyclic peptide libraries” (Bioorg Med Chem Lett, 2005).

The experiment addresses Actin, cytoplasmic 1 (Xenopus laevis, UniProt O93400). The experiment can be described thus: Inhibitory activity against actin assembly in xenopus by polymerisation assay.

As usually defined, the IC50 is the concentration that inhibits the measured activity by half. For `NCCCC[C@@H]1NC(=O)[C@H](CCC(N)=O)NC(=O)[C@H]2CCCN2C(=O)[C@H](Cc2ccccc2)NC(=O)[C@@H](Cc2ccccc2)NC(=O)[C@H]2CCCN2C(=O)[C@@H](Cc2ccccc2)NC1=O`, the IC50 result is reported as “Not Active”.

For the compound `NCCCC[C@@H]1NC(=O)[C@H](CCC(N)=O)NC(=O)[C@H]2CCCN2C(=O)[C@H](Cc2ccccc2)NC(=O)[C@@H](Cc2ccccc2)NC(=O)[C@H]2CCCN2C(=O)[C@@H](Cc2ccccc2)NC(=O)[C@H](CCCCN)NC(=O)[C@H](CCC(N)=O)NC(=O)[C@H]2CCCN2C(=O)[C@H](Cc2ccccc2)NC(=O)[C@@H](Cc2ccccc2)NC(=O)[C@H]2CCCN2C(=O)[C@@H](Cc2ccccc2)NC1=O`, the IC50 (read-out: IC50) stood at 2 µM.
